Reference: patent US8614064B2, “Methods of diagnosing atherosclerosis by measuring ApoCI” (The Johns Hopkins University, priority 2003, dated 2013)

Legend:
[1] = system: human aortic smooth muscles cells (ASMC); test: Fluorescence microscope quantitative assay of apoptotic death (DAPI staining); type: cell-based; settings: for apoptotic cells by white staining of the nucleus with DAPI (FIG. 1A): 2.5 μg/mL medium; for percent of apoptotic cells (DAPI, FIG. 1B): ApoCI and ApoCIII 2.5 μg/mL medium, ApoCI-enriched HDL 1 μg apoA-I/mL, ApoCI-poor HDL 5 μg apoA-I/mL, control 2.24%
Experimental: (§1) FIGS. 1A-1C depict the effect of apolipoproteins on apoptosis in human aortic smooth muscles cells (ASMC). ASMC were grown on sterilized glass cover slips and incubated for 24 hours with media alone (control), ApoCIII (negative control, 2.5 μg/mL medium), ApoCI (2.5 μg/mL medium), ApoCI-enriched HDL (1 μg apoA-I/mL medium), or ApoCI-poor HDL (5 μg apoA-I/mL medium) for 24 hours. Cells were then fixed with ethanol-acetic acid (3:1 volume/volume) and washed 3 times with phosphate-buffered saline. The cells were then stained with DAPI reagent, mounted on a glass cover slide, and subjected to fluorescence microscopy. FIG. 1A: The nucleus of normal cells stains blue and the nucleus of apoptotic cells stains is fragmented white. FIG. 1B: 300 to 500 cells in each sample were counted and the percent of apoptotic cells was plotted. Values are mean±SD; **P<0.01, ***P<0.001. FIG. 1C: DNA ladder assay. Confluent cultures of ASMC were incubated with control medium alone, ApoCI (2.5 μg/mL medium), ApoCIII (negative control, 2.5 μg/mL medium), and TNF-α (positive control, 20 ng/mL medium). Genomic DNA was extracted and 10 μg DNA was subjected to agarose gel electrophoresis. The gels were calibrated with commercially available DNA standards. After electrophoresis, the gels were stained with ethidium bromide and then photographed.
FIGS. 2A-2B depict the effect of ApoCI, the N-SMase inhibitor, GW4869, and C-2 ceramide on apoptosis in cultured human ASMC. FIG. 2A: ASMC (1×10^3) were seeded on sterilized glass cover slips and grown in tissue culture medium with 10% fetal calf serum for 48 hours. […] Thirty minutes later, vehicle DMSO, ApoCI (2.5 μg/mL), or C2-ceramide (10 μmol/L) were added to dishes, and the incubation continued for 24 hours. The cells were then fixed with ethanol-acetic acid (3:1 v/v), stained with DAPI reagent, assessed by fluorescent microscopy, and photographed. Top to bottom: control cells; cells incubated with ApoCI± the N-SMase inhibitor, GW4869; and cells incubated with ApoCI GW4869, and C2-ceramide. FIG. 2B: The DAPI-stained ASMC from the four experimental conditions described was analyzed for quantitative apoptosis. Mean (SD) from 4 experiments. *P<0.05.
Human AoSMC that were negative for mycoplasma, hepatitis B and C and HIV-1 were purchased from Clonetics (San Diego, Calif.) and cultured in Dulbecco's minimal essential medium (Invitrogen, Carlsbad, Calif.) with 10% fetal bovine serum (Hyclone, Salt Lake City, Utah), 100-units/ml penicillin, 100-μg/ml streptomycin to confluence. The cells were incubated in serum-free medium for 30 min prior to initiating the experiments. Cells were then washed and harvested in PBS, and centrifuged at 1500 rpm for 5 min at 4° C. Protease inhibitors were then added and the pellets stored frozen at −30° C. until use.
1×10^3 cells were grown on sterilized glass cover slips in 6-well trays and treated with ApoCI (2.5 μg/ml medium), ApoCIII (2.5 μg/ml medium), tumor necrosis factor (TNF)-α (30 ng/ml), ApoCI-enriched HDL (1 μg apoA-I/ml medium) and ApoCI-poor HDL (5 μg apoA-I/ml medium). After 24 h incubation, the medium was removed, cells fixed with ethanol:acetic acid […] and stored at 4° C. Next, the fixing solution was removed and cells stored frozen at −30° C. Cover slips were mounted on the microscope slides and stained with DAPI reagent (4,6-diamino-2-phenylindol, dihydrochloride). The stained nuclei were visualized by fluorescence microscopy (Zeiss Axiovert 25). Apoptotic cells were determined after counting—500 cells in a double blind fashion.

[2] = system: human aortic smooth muscles cells (ASMC); test: DNA laddering assay; type: cell-based; settings: ApoCI or ApoCIII 2.5 μg/mL, TNF-α positive control
Experimental: as §1
Cells were treated with either TNF-α (30 ng/ml), ApoCI or ApoCIII (2.5 μg/ml) for 6 h. The cells were then washed twice with minimal essential medium and harvested with buffer (10 mM HEPES, pH 7.4. 5 mM EDTA, 0.25 mM EGTA, 50 mM NaF, 5 mM β-mercaptoethanol, 0.35 M sucrose, 0.1% Nonidet and protease inhibitors, 1 mM phenylmethylsulfonyl fluoride, 2 μg/ml leupeptin and 5 μg/ml pepstatin), and pelleted. Genomic DNA was prepared employing standard protocol. Genomic DNA was subjected to electrophoresis, stained with ethidium bromide and the gel was photographed. The gel was calibrated using DNA fragments of known molecular weight.

caspase-3 = test: Caspase-3 level, Western immunoblot, ASMC; type: cell-based, human; settings: compared with control medium; ApoCI and ApoCIII 2.5 μg/ml, ApoCI-enriched HDL 1 μg apoA-I/ml, ApoCI-poor HDL 5 μg apoA-I/ml
Experimental: After incubation with ApoCI (2.5 μg/ml medium), ApoCIII (2.5 μg/ml medium), apoC-1-enriched HDL (1 μg apoA-I/ml medium), or ApoCI-poor HDL (5 μg ApoA-I/ml medium) for 24 h and 48 h, the cells were subjected to extraction with a buffer (30 mM HEPES, pH 7.5, 10 mM KCl, 1.5 mM MgCl2, 5 mM DTI, 2 mM phenylmethylsulfonyl fluoride (PMSF), 1% Nonidet P-40, 0.5% sodium deoxycholate, 0.1% SDS, 2 μg/ml leupeptin, 2 μg/ml aprotinin, 0.5 μg/ml benzamidine, and 250 mM sucrose) on ice for 30 min. Next, the samples were centrifuged at 10,000×g at 4° C. The supernatant was utilized as a source of cytochrome c in Western immunoblot assay. The pellets were lysed in RIPA buffer (phosphate buffer saline, 1% Nonidet P-40, 0.5% sodium deoxycholate, 0.1% SDS, and cocktail of inhibitors described above). The samples were passed through a 21-gauge needle to shear the DNA. Next, 10 μl of PMSF (10 mg/ml) was added and incubation continued for 60 min on ice. The samples were centrifuged at 10,000-×g for 10 min at 4° C. The supernatants were used as a source of protein in Western immunoblot assay for determination of caspase activation. Proteins (100 μg) were separated using 4-15% SDS-polyacrylamide gel under denaturing conditions and electro transferred onto nitrocellulose. […]

Row | Compound | apoptotic cells by white staining of the nucleus with DAPI (FIG. 1A) ([1]; 24 h) | percent of apoptotic cells (DAPI, FIG. 1B) ([1]; 24 h) [%] | DNA laddering on agarose gel (FIG. 1C) [2] | stimulation of caspase-3 level/expression (caspase-3) | effect of GW4869 on ApoCI-induced apoptosis, lower dose ([1]; GW4869 10 μmol/L) | effect of GW4869 on ApoCI-induced apoptosis ([1]; GW4869 20 μmol/L, 30 min before ApoCI 2.5 μg/mL, 24 h) | ApoCI-induced apoptosis, percent apoptotic cells (FIG. 2B) ([1]; ApoCI 2.5 μg/mL, 24 h, control ~2%) [%]
1 | ApoCIII: purified human ApoCIII purchased from Academy Bio-Medical Company, used as negative control | only a few apoptotic cells | 4.78 | did not exhibit significant DNA laddering | to a lesser extent than ApoCI-enriched HDL | – | – | –
2 | O=C(/C=C/c1ccc(/C=C/C(=O)Nc2ccc(C3=NCCN3)cc2)cc1)Nc1ccc(C2=NCCN2)cc1 [GW4869] | – | – | – | – | also observed | completely abrogated | –
3 | Apolipoprotein C-I (TPDVSSALDKLKEFGNTLEDKARELISRIKQSELSAKMREWFSETFQKVKEKLKIDS; UniProt P02654 27-83, looked up) [ApoCI, 6.6-kDa single-chain plasma protein of 57 amino acids; purified human ApoCI purchased from Academy Bio-Medical Company] | many apoptotic cells | 26.19 | exhibited DNA laddering | 4 fold | – | – | ~12
